From US20230203096A1, “EPHA4 TARGETING COMPOUNDS AND METHODS OF USE THEREOF” (priority 2020, published 2023)
Where two headings read alike, the source gives them in different places. Square brackets hold non-standard residues; d marks the D form. Peptide text beside a SMILES is read from it. * marks the point of attachment. Cyclohexanoyl(1S,3S-3-NH2) = N[C@H]1CCC[C@H](C(=O)*)C1; Trp(5-OH) = N[C@@H](Cc1c[nH]c2ccc(O)cc12)C(=O)O; NH(4-morpholinophenyl) = c1cc(N2CCOCC2)ccc1N*; Bip = N[C@@H](Cc1ccc(-c2ccccc2)cc1)C(=O)O; hArg = N=C(N)NCCCC[C@H](N)C(=O)O

Assays:
[1] = target: T1, EphA4-LBD and ephrinA5 (Homo sapiens, UniProt P54764, C204A); assay: ephrinA5 displacement by 2D [13C,1H] correlation NMR; format: binding; conditions: ^1H] correlation spectra
T1 construct: His tag (N); made in house; host or cells: E. coli Rosetta-Gami B(DE3) for EphA4-LBD; ephrin-A5 purchased from Sino Biological US Inc (catalogue number not given)
T1 sequence (P54764 29-209 C204A): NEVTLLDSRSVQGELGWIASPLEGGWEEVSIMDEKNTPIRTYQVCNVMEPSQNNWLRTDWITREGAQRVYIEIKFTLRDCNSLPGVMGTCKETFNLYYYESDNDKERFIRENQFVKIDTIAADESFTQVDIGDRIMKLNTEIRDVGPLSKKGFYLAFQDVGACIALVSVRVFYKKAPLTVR
Method: NMR spectra were acquired on Bruker Avance III 700 MHz spectrometer equipped with a TCI cryoprobe. All NMR data were processed and analyzed using TOPSPIN 3.6.1 (Bruker, Billerica, Mass., USA). 2D-[^13C,^1H]-HSQC experiments were acquired with 20 μM proteins using 8 scans with 2,048 and 256 complex data points in the ^1H and […] dimensions, respectively, at 298 K. For the 150D4 NMR titrations in FIG. 8 2D-[^13C,^1H]-HSQC experiments were acquired using 16 scans per increment, and for ephrinA5 binding studies (FIG. 8) with 10 μM protein, using 32 scans per increment.

[2] = target: EphA4 (Mus musculus, UniProt Q03137); assay: EphA4 phosphorylation in primary spinal cord motor neurons (IP/western blot); conditions: 1 μM or 10 μM, 30 min
Sequence of EphA4 (Q03137 20-986): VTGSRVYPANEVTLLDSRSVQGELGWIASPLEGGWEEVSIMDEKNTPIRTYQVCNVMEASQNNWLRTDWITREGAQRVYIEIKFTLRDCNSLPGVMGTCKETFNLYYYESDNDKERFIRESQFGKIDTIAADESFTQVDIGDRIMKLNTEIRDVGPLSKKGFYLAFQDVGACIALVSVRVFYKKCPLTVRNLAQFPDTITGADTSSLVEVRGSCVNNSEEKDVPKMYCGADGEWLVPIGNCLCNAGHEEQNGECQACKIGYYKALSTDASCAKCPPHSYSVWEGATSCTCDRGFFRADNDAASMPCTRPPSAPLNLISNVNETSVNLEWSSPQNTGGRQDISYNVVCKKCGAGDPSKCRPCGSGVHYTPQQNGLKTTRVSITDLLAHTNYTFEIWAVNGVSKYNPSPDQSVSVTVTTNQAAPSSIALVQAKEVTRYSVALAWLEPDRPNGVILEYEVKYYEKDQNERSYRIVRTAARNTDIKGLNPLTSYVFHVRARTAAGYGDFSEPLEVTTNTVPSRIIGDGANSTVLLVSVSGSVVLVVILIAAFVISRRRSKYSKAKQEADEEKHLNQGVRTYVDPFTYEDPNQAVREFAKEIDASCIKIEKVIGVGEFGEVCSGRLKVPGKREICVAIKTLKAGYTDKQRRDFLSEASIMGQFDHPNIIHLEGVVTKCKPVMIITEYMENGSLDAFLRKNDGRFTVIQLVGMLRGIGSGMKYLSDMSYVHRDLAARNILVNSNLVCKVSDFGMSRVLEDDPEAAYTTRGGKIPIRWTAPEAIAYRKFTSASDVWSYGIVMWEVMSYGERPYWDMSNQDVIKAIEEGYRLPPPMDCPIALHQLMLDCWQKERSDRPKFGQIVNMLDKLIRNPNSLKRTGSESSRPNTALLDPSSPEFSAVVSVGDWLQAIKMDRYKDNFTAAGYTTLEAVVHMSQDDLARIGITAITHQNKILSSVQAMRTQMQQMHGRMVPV

[3] = tested on: primary spinal cord motor neurons; assay: Growth cone collapse in primary spinal cord motor neurons; conditions: 1 μM and 10 μM 150D4, 2 DIV neurons
[4] = In vivo pharmacokinetics and brain exposure; conditions: mice; for tissue level at time at 0.5 h / level at 0.5 h / tissue level at time at 24 h / level at 24 h / level at 1 h: mouse; for tissue level at time at 0.5 h / tissue level at time at 24 h: read-out: Amount of compound per mg of wet brain tissue
[5] = target: T2, recombinant EphA4 ligand binding domain (Homo sapiens, UniProt P54764, C204A); assay: Isothermal titration calorimetry (ITC) against EphA4-LBD; conditions: ITC, EphA4-LBD
T2 construct: His tag (N); made in house; host or cells: E. coli Rosetta-Gami B(DE3), pET15b
T2 sequence (P54764 29-209 C204A): as the sequence (P54764 29-209 C204A) above
Method: Peptides were synthesized by using standard solid-phase synthesis protocol, using the BAL resin as anchoring for the C-terminal amines. Isothermal Titration Calorimetry (ITC) measurements were performed in a reverse fashion by titrating the protein into the ligand solution. Solution nuclear magnetic resonance (NMR) experiments were conducted on a 700 MHz Bruker Avance spectrometer equipped with a TCI cryoprobe. Each protein sample was dissolved into an NMR tube at a final concentration of 20 μM (1% DMSO-d6) in the presence of 20 μM of each compound.
The fragments were transformed into Rosetta-Gami B(DE3) competent cells and grown in LB medium at 37° C. with 100 μg/mL of ampicillin until reaching an OD600 of 0.6-0.7 followed by induction with 0.4 mM IPTG overnight at 20° C. Bacteria were then collected by centrifugation and lysed by sonication at 4° C. […] EphA4 LBD with ^13C^ε/^1H^ε-Met labeled was expressed like previously described but adding a suspension of 100 mg of ^13C^ε/^1H^ε-Methionine in 1 mL of DMSO per liter of LB medium, 10 minutes before induction. […] Transformation, expression, and purification of EphA3-LBD chimera was performed as described above for EphA4-LBD.
Isothermal titration calorimetry (ITC) measurements were performed using the Affinity ITC Autosampler from TA Instruments (New Castle, Del.). The titrations were performed in a reverse fashion by titrating the protein into the ligand solution. […] The syringe was filled with a 100 μM solution of EphA4-LBD, EphA3-LBD Chimera, or EphA2-LBD, and 20 injections of 2.5 μL each were performed into the cell containing a 20 μM solution of the compounds. The injections were made at 200 s or 400 s intervals with a stirring speed of 75 rpm. All the solutions were kept in the autosampler at 4° C. The analysis of the thermodynamics signatures and for dissociation constant determination was performed by the NanoAnalyze software (TA Instruments, New Castle, Del.) and subsequently exported into Microsoft Excel.

[6] = target: EphA2-LBD (Homo sapiens, UniProt P29317); assay: Isothermal titration calorimetry (ITC) against EphA2-LBD
Sequence of EphA2-LBD (P29317 27-200): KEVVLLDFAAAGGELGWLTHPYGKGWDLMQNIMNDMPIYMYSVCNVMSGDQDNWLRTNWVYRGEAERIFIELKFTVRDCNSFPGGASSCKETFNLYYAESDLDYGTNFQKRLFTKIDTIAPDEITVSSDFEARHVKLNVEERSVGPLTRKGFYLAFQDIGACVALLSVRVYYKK
Method: Isothermal titration calorimetry (ITC) measurements were performed using the Affinity ITC Autosampler from TA Instruments (New Castle, Del.). The titrations were performed in a reverse fashion by titrating the protein into the ligand solution. […] The injections were made at 200 s or 400 s intervals with a stirring speed of 75 rpm. All the solutions were kept in the autosampler at 4° C. The analysis of the thermodynamics signatures and for dissociation constant determination was performed by the NanoAnalyze software (TA Instruments, New Castle, Del.) and subsequently exported into Microsoft Excel.

[7] = tested on: mouse motor neurons co-cultured with iAstrocytes derived from sALS patients; assay: Co-culture of sALS patient derived iAstrocytes and motor neurons (motor neuron survival); format: cell-based; conditions: 10 μM
Description: EphA4 has been directly implicated in the progression of ALS in mice models and in human genetic studies. While the mechanisms for onset and progression of ALS remain largely undetermined, astrocytes have been implicated as significant contributors to motor neuron death in both in familial ALS (fALS), that is driven by inactivating mutations within the superoxide dismutase 1 (SOD1) gene and that account for less than 2% of all ALS cases, (Di Giorgio et al., Nat Neurosci, 10 (5): 608-614, (2007); Nagai et al., Nat Neurosci, 10 (5): 615-622, (2007); Yamanaka et al., Nat Neurosci, 11 (3): 251-253, (2008)) and the more common sporadic form of ALS (sALS). […] Recently, it was shown that astrocytes derived from both patient groups are similarly toxic to motor neurons (Haidet-Phillips et al., Nat Biotechnol, 29 (9): 824-828, (2011)).
Induced Astrocytes were generated by seeding a low quantity of NPCs into astrocyte medium (DMEM media containing 10% FBS and 0.2% N2) for five days. Following differentiation, iAstrocytes were lifted and seeded into a 96 well (10,000 cells per well).
Cells are sorted through a 100 micron tip with sheath pressure of 27. GFP+ motor neurons were seeded in a 96 well plate (10,000 cells per well). Co-cultures were imaged with InCell for up to three days. Motor neurons with neurite outgrowth of greater than 50 um were counted as alive.

In the case of `N=C(N)NCCCC[C@H](NC(=O)[C@H](Cc1ccc(-c2ccccc2)cc1)NC(=O)[C@H](Cc1c[nH]c2ccc(O)cc12)NC(=O)[C@H]1CCC[C@H](N)C1)C(=O)NCC(=O)Nc1ccc(N2CCOCC2)cc1` [Compound 8, (1S,3S)—N—((S)-1-(((S)-3-([1,1′-biphenyl]-4-yl)-1-(((S)-6-guanidino-1-((2-((4-morpholinophenyl)amino)-2-oxoethyl)amino)-1-oxohexan-2-yl)amino)-1-oxopropan-2-yl)amino)-3-(5-hydroxy-1H-indol-3-yl)-1-oxopropan-2-yl)-3-aminocyclohexane-1-carboxamide] ({Cyclohexanoyl(1S,3S-3-NH2)}-[Trp(5-OH)][Bip][hArg]G-{NH(4-morpholinophenyl)}), the “displacement of ephrinA5 binding to EphA4-LBD” value [1] is reported as “efficiently displaces the binding of ephrinA5”, the “EphA4 receptor phosphorylation (pEphA4/total EphA4)” value [2] is reported as “more significantly active than others” and the growth cone collapse [3] is reported as “effective in inducing growth cone collapse”. The “Total extracted brain compound” value ([4]; 10 mg/kg IV, 30 min) was 205.6 ng, the “Total extracted brain compound” value ([4]; 10 mg/kg IV, 24 hr) was 60 ng and the “Total extracted brain compound” value ([4]; 50 mg/Kg IP, 30 min) was 185 ng. For the same compound, the “Total extracted brain compound” value ([4]; 50 mg/Kg IP, 24 hr) was 34.7 ng, the tissue level at time at 0.5 h ([4]; brain, 10 mg/kg IV, 30 min) was 4730 ng/g and the level at 0.5 h ([4]; brain, 10 mg/kg IV, 30 min, read-out: Brain concentration) was 189 ng/mL. It also gave a tissue level at time at 24 h ([4]; brain, 10 mg/kg IV, 24 hr) of 1360 ng/g, a level at 24 h ([4]; brain, 10 mg/kg IV, 24 hr, read-out: Brain concentration) of 54 ng/mL and a tissue level at time at 0.5 h ([4]; brain, 50 mg/Kg IP, 30 min) of 4600 ng/g. For the same compound, the level at 1 h ([4]; brain, 50 mg/Kg IP, read-out: Brain concentration) was 184 ng/mL, the tissue level at time at 24 h ([4]; brain, 50 mg/Kg IP, 24 hr) was 1100 ng/g and the level at 24 h ([4]; brain, 50 mg/Kg IP, 24 hr, read-out: Brain concentration) was 45.5 ng/mL. The level at 0.5 h ([4]; plasma, 10 mg/kg IV, 30 min, read-out: Plasma drug concentration) was 484 ng/mL, the level at 24 h ([4]; plasma, 10 mg/kg IV, 24 hr, read-out: Plasma drug concentration) was 14.2 ng/mL and the level at 1 h ([4]; plasma, 50 mg/Kg IP, read-out: Plasma drug concentration) was 7740 ng/mL. The level at 24 h ([4]; plasma, 50 mg/Kg IP, 24 hr, read-out: Plasma drug concentration) was 45 ng/mL, the “-TΔS” value [5] was -0.88 kcal/mol and the “AH” value [5] was -8.49 kcal/mol. The Kd ([5]; read-out: Kd (nM)- ITC) was 113 nM, the “binding to EphA2 (in words)” value [6] was “limited binding” and the “protection of motor neurons from sALS astrocytes-induced death” value [7] was “able to protect mouse motor neurons from iAstrocytes derived from sALS patients”.
